# Source: US7964629B2, “Inhibitors of isoprenylcysteine carboxyl methyltransferase” (Duke Universtiy, priority 2005, dated 2011)
# Biological target: T1, recombinant human Icmt (Homo sapiens, UniProt O60725)
# T1 construct: recombinant baculovirus containing the entire open reading frame of the human Icmt cDNA; made in house; host or cells: Sf9 insect cells (baculovirus); membrane fraction used
# Experiment: Icmt assay: [3H]methyl incorporation from [3H]AdoMet into BFC
# Assay type: biochemical
# Settings: not given
# T1 sequence (O60725 whole entry): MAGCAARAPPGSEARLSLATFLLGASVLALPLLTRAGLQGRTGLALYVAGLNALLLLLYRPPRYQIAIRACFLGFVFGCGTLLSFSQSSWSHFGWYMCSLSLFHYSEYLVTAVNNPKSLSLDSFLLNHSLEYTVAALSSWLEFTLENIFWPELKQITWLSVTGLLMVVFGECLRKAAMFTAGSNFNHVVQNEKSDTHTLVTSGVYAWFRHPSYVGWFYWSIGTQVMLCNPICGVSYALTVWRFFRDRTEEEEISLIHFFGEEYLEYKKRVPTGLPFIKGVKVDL
row,Molecule,IC50 [µM]
1,CCOc1cccc(-c2ccc3c(c2)c(CC=O)cn3Cc2cccc(C(F)(F)F)c2)c1 [9F10/A119038],6

# Same assay, conditions: Table 1, R1 substituent x scaffold matrix; read-out: IC50
row,IC50 [µM],Molecule
1,13.7 ± 0.3,CC(C)Cn1cc(CC(N)=O)c2cc(-c3cccc(F)c3)ccc21 [(a1)/drawing 3]

# Same assay, conditions: Table 2, no pre-incubation; read-out: IC50
row,Molecule,IC50 [µM]
1,CC(C)(C)c1ccc(Cn2cc(CC=O)c3cc(-c4cc(C(F)(F)F)cc(C(F)(F)F)c4)ccc32)cc1 [9B4/A119024],4
2,CCOc1cccc(-c2ccc3c(c2)c(CC=O)cn3Cc2ccc(C(C)(C)C)cc2)c1 [9B6/A119030],3
3,O=CCc1cn(Cc2ccccc2)c2ccc(-c3ccc(Oc4ccccc4)cc3)cc12 [9B8/A119007],7
4,CC(C)(C)c1ccc(Cn2cc(CC=O)c3cc(-c4cccc(F)c4)ccc32)cc1 [9B12/A119029],4
5,O=CCc1cn(CCCOc2ccccc2)c2ccc(-c3ccc(Oc4ccccc4)cc3)cc12 [9B20/A119055],14
6,CC(C)Cn1cc(CC=O)c2cc(-c3cc(C(F)(F)F)cc(C(F)(F)F)c3)ccc21 [9B22/A119064],8
7,O=CCc1cn(CCCOc2ccccc2)c2ccc(-c3cc(C(F)(F)F)cc(C(F)(F)F)c3)cc12 [9D10/A119048],> 30
8,O=CCc1cn(Cc2cccc(C(F)(F)F)c2)c2ccc(-c3ccc(Oc4ccccc4)cc3)cc12 [9D12/A119039],7
9,CCCCCCCCn1cc(CC=O)c2cc(-c3ccc(Oc4ccccc4)cc3)ccc21 [9D18/A119047],5
10,CCCCCCn1cc(CC=O)c2cc(-c3ccc(Oc4ccccc4)cc3)ccc21 [9D20/A110023],20
11,COc1ccccc1-c1ccc2c(c1)c(CC=O)cn2CC1CC1 [9F8/A119059],> 30
12,CCCCCCn1cc(CC=O)c2cc(-c3ccc(F)c(Cl)c3)ccc21 [9F18/A119017],7
13,CCCCCCCCn1cc(CC=O)c2cc(-c3cccc(OCC)c3)ccc21 [9F20/A119046],2
14,Cc1ccc(-c2ccc3c(c2)c(CC=O)cn3Cc2cccc(C(F)(F)F)c2)cc1 [9H4/A119034],7
15,O=CCc1cn(Cc2ccccc2)c2ccc(-c3cc(C(F)(F)F)cc(C(F)(F)F)c3)cc12 [9H6/A119000],18
16,CCCCCCn1cc(CC=O)c2cc(-c3cccc(OCC)c3)ccc21 [9H10/A119022],7
17,O=CCc1cn(CC2CC2)c2ccc(-c3cc(C(F)(F)F)cc(C(F)(F)F)c3)cc12 [9H12/A119056],20
18,O=CCc1cn(Cc2cccc(C(F)(F)F)c2)c2ccc(-c3ccc(F)c(Cl)c3)cc12 [9H14/A119033],6
19,O=CCc1cn(CC2CC2)c2ccc(-c3ccc(F)c(Cl)c3)cc12 [9J8/A119057],> 30
20,CCCCCCCCn1cc(CC=O)c2cc(-c3ccccc3OC)ccc21 [9J16/A119043],5
21,CCCCCCCCn1cc(CC=O)c2cc(-c3cccc(F)c3)ccc21 [9J18/A119045],3

# Next, values leading:
row,IC50 [µM],Molecule
1,7,CCCCCCn1cc(CC=O)c2cc(-c3cccc(C)c3)ccc21 [9J22/A119020]
2,23,CCCCCCn1cc(CC=O)c2cc(-c3ccc(C)cc3)ccc21 [9L4/A119018]
3,9,CCCCCCCCn1cc(CC=O)c2cc(-c3ccc(C)cc3)ccc21 [9L6/A119042]
4,1,CCCCCCCCn1cc(CC=O)c2cc(-c3ccc(F)c(Cl)c3)ccc21 [9L8/A119041]
5,> 30,O=CCc1cn(Cc2cccc(C(F)(F)F)c2)c2ccc(-c3cc(C(F)(F)F)cc(C(F)(F)F)c3)cc12 [9L10/A119032]
6,> 30,CCCCCCCCn1cc(CC=O)c2cc(-c3cc(C(F)(F)F)cc(C(F)(F)F)c3)ccc21 [9L22/A119040]
7,5,CC(C)(C)c1ccc(Cn2cc(CC=O)c3cc(-c4ccc(F)c(Cl)c4)ccc32)cc1 [9N6/A119025]
8,> 30,Cc1ccc(-c2ccc3c(c2)c(CC=O)cn3CC2CC2)cc1 [9N8/A119058]
9,9,O=CCc1cn(Cc2ccccc2)c2ccc(-c3ccc(F)c(Cl)c3)cc12 [9N10/A119001]
10,18,COc1ccccc1-c1ccc2c(c1)c(CC=O)cn2Cc1ccc2ccccc2c1 [9N12/A119075]
11,20,O=CCc1cn(Cc2ccc3ccccc3c2)c2ccc(-c3ccc(Oc4ccccc4)cc3)cc12 [9N14/A119079]
12,20,Cc1cccc(-c2ccc3c(c2)c(CC=O)cn3Cc2ccc3ccccc3c2)c1 [9N22/A119076]

# Same assay, conditions: Table 2, pre-incubation of enzyme with inhibitor; read-out: IC50 pre-inc
row,IC50 [µM],Molecule
1,< 0.3,CCCCCCCCn1cc(CC=O)c2cc(-c3cccc(F)c3)ccc21 [9J18/A119045]

# Same assay, conditions: Table 3, pre-incubation with Icmt for 30 min at 37° C.; read-out: IC50 PI (converted)
row,IC50 [µM],Molecule
1,17.7,Cc1cccc(-c2ccc3c(c2)c(CC(N)=O)cn3CC(C)C)c1 [(a1)/drawing 2]
2,9.5,Cc1cccc(-c2ccc3c(c2)c(CC(N)=O)cn3CC2CC2)c1 [(b1)/drawing 2]
3,1.7,CCCCCCn1cc(CC(N)=O)c2cc(-c3cccc(C)c3)ccc21 [(c1)/drawing 2]
4,2.4,Cc1cccc(-c2ccc3c(c2)c(CC(N)=O)cn3Cc2ccccc2)c1 [(e1)/drawing 2]
5,0.71,Cc1cccc(-c2ccc3c(c2)c(CC(N)=O)cn3Cc2cccc(C(F)(F)F)c2)c1 [(g1)/drawing 2]

# Same assay, conditions: standard in vitro methylation assay; read-out: Km as Icmt substrate
row,Molecule,Km [µM]
1,"biotin-S-farnesyl-L-cysteine [BFC, reference compound]",2.1 ± 0.4
